Results on 15 compounds are retold here after paper doi:10.1101/2022.03.05.483025v1 (biorxiv, 2022).

Test [1] concerns the target T1, SARS-CoV-1 Mpro (Severe acute respiratory syndrome-related coronavirus, UniProt P0C6X7). In words: biochemical.
In test [2] the target is T2, SARS-CoV-2 Mpro (Severe acute respiratory syndrome coronavirus 2, UniProt P0DTD1). The test is described as follows: rhodamine-based substrate peptide activity assay. It is filed as biochemical.
Test [3] has as its target T3, MERS-CoV Mpro (Betacoronavirus England 1, UniProt K9N7C7). The test is described as follows: biochemical.
The target of test [4] is T3, MERS-CoV Mpro. In words: biochemical. This is another data set of the same source.
The target of test [5] is T2, SARS-CoV-2 Mpro. In words: biochemical.
The target of test [6] is T4, PorCoV-HKU15 Mpro (Porcine coronavirus HKU15, UniProt H9BQY4). Particulars: covalent.
Test [7] has as its target T5, HCoV-NL63 Mpro (Human coronavirus NL63, UniProt P0C6X5). In words: biochemical.
Target sequence in this assay (P0C6X5 2940-3242 limits assumed): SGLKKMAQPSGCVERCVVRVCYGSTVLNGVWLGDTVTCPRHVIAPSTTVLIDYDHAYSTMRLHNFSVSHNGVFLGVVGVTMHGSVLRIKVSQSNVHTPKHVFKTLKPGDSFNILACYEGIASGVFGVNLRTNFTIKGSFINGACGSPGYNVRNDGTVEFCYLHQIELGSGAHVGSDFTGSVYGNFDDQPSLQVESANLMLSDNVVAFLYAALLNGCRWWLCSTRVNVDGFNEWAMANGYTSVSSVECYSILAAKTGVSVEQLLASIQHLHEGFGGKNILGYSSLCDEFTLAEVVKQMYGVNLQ
Test [8] deals with T6, HCoV-229E Mpro (Human coronavirus 229E, UniProt P0C6X1). The test is described as follows: biochemical.
Target sequence in this assay (P0C6X1 2966-3267 limits assumed): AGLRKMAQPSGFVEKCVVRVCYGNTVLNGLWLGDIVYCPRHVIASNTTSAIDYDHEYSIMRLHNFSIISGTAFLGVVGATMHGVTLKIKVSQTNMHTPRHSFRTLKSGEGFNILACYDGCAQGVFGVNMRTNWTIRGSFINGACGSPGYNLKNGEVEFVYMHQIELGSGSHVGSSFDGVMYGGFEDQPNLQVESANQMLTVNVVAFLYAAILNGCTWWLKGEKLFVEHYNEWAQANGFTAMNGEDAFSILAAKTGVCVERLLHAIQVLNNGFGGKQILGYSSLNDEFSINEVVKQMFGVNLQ
In test [9] the target is T7, HCoV-HKU1 Mpro (Human coronavirus HKU1 (isolate N1), UniProt P0C6X2). In words: biochemical.
Target sequence in this assay (P0C6X2 3335-3637 limits assumed): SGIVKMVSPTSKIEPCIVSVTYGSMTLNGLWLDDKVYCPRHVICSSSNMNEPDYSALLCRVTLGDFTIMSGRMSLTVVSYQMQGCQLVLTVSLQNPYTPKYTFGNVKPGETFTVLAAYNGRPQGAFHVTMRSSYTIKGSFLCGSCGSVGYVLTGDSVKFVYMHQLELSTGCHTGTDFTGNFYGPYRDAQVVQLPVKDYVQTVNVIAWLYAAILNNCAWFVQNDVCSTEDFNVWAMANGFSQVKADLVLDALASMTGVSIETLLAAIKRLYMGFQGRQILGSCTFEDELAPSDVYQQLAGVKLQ
Test [10] concerns the target T3, MERS-CoV Mpro. The test is described as follows: biochemical. The source holds these as a separate data set.
For test [11], the target named is T7, HCoV-HKU1 Mpro. In words: biochemical. The source holds these as a separate data set.
Target sequence in this assay (P0C6X2 3335-3637): as the sequence (P0C6X2 3335-3637 limits assumed) above
Test [12] concerns the target T6, HCoV-229E Mpro. The test is described as follows: biochemical. The source holds these as a separate data set.
Target sequence in this assay (P0C6X1 2966-3267): as the sequence (P0C6X1 2966-3267 limits assumed) above
Test [13] has as its target T2, SARS-CoV-2 Mpro. The test is described as follows: biochemical. This is another data set of the same source.
The target in test [14] is T5, HCoV-NL63 Mpro. In words: biochemical. This is another data set of the same source.
Target sequence in this assay (P0C6X5 2940-3242): as the sequence (P0C6X5 2940-3242 limits assumed) above
Test [15] concerns the target T4, PorCoV-HKU15 Mpro. Particulars: covalent. The source holds these as a separate data set.
The target of test [16] is T2, SARS-CoV-2 Mpro. The test is described as follows: Mpro substrate activity assay. It is filed as biochemical.
Test [17] concerns the target T7, HCoV-HKU1 Mpro. The test is described as follows: RapidFire MS substrate peptide activity assay. It is filed as biochemical.
Target sequence in this assay (P0C6X2 3335-3637): as the sequence (P0C6X2 3335-3637 limits assumed) above
The target in test [18] is T1, SARS-CoV-1 Mpro. The test is described as follows: biochemical. This is another data set of the same source.
Test [19] addresses T5, HCoV-NL63 Mpro. The test is described as follows: RapidFire MS substrate peptide activity assay. It is filed as biochemical.
Target sequence in this assay (P0C6X5 2940-3242): as the sequence (P0C6X5 2940-3242 limits assumed) above
A further test deals with HCoV-OC43 Mpro (Human coronavirus OC43, UniProt P0C6X6). The test is described as follows: RapidFire MS substrate peptide activity assay. It is filed as biochemical.
Test [20] addresses T6, HCoV-229E Mpro. In words: RapidFire MS substrate peptide activity assay. It is filed as biochemical.
Target sequence in this assay (P0C6X1 2966-3267): as the sequence (P0C6X1 2966-3267 limits assumed) above
Test [21] concerns the target T2, SARS-CoV-2 Mpro. The test is described as follows: RapidFire MS substrate peptide activity assay. It is filed as biochemical.
The target in test [22] is avian infectious bronchitis virus (IBV) Mpro (Avian infectious bronchitis virus (strain Beaudette), UniProt P0C6Y1). In words: RapidFire MS substrate peptide activity assay. It is filed as biochemical.
[23] abbreviates: read-out: HW-1-87A (trans), covalent.
Where [24] appears, read: read-out: PM-2-20A (trans), covalent.
Setting [25] is: read-out: PM-2-27A (trans), covalent.
Setting [26] is: read-out: hidden head, 8th column, covalent.

Each structure is given as a SMILES string. Read-outs that look alike come from different tables or passages of the source. Some results are limits rather than exact numbers.

T3 sequence (K9N7C7 3248-3553 limits assumed): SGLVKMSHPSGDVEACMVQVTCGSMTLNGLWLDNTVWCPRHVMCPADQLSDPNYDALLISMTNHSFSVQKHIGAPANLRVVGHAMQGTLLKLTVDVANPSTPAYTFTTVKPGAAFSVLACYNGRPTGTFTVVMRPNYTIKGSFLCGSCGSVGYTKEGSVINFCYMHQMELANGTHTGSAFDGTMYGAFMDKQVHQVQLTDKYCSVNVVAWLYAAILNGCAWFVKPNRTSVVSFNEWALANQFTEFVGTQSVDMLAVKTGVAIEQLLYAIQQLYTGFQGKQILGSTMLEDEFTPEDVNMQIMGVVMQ
T4 sequence (H9BQY4 2509-2811 limits assumed): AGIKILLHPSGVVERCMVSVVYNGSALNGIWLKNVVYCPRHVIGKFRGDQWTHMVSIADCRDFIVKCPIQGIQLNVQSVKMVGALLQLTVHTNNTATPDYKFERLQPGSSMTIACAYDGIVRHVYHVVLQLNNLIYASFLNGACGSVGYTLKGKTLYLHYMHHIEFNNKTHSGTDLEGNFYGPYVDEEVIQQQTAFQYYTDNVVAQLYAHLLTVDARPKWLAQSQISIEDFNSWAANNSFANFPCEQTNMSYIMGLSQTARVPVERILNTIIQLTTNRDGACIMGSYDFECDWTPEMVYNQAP
Sequence of avian infectious bronchitis virus (IBV) Mpro (P0C6Y1 2780-3086): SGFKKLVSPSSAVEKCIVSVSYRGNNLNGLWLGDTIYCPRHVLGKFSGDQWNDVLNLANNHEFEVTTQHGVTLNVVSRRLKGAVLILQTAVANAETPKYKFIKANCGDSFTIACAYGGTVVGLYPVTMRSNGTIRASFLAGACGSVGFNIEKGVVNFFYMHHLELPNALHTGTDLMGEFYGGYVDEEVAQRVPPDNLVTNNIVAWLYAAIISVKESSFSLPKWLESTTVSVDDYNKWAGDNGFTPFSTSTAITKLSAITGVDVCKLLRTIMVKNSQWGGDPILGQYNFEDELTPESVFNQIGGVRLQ
Sequence of HCoV-OC43 Mpro (P0C6X6 3247-3549): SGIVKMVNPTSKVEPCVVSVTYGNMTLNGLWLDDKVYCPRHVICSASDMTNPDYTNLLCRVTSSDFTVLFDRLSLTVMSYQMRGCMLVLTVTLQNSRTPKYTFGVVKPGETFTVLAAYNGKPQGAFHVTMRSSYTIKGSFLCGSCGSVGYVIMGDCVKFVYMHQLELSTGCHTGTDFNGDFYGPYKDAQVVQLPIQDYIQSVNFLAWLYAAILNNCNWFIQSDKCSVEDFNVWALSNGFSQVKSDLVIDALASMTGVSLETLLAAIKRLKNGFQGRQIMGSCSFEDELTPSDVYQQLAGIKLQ

For the compound `O=C(CCl)N1N=C(c2ccccc2)CC1c1cccc2nccnc12` (racemic) [EN82], the IC50 is 59 nM on SARS-CoV-1 Mpro [1], 91 nM on SARS-CoV-2 Mpro [2] and 560 nM on MERS-CoV Mpro [3].
With `O=C(CCl)N1N=C(c2ccccc2)[C@H](c2ccccc2)[C@H]1c1ccc2nccnc2c1` (relative stereo) [HW-1-87A (trans)], the IC50 at MERS-CoV Mpro [4] (setting [23]) was determined as 340 nM; at SARS-CoV-2 Mpro [5] (setting [23]), 85 nM; on PorCoV-HKU15 Mpro [6] (read-out: HW-1-87A (trans)) it was 4900 nM; at HCoV-NL63 Mpro [7] (setting [23]), 140 nM; on HCoV-229E Mpro [8] (setting [23]) it was 30 nM; at HCoV-HKU1 Mpro [9] (setting [23]), 40 nM.
Take `O=C(CCl)N1N=C(c2ccccc2)[C@H](c2ccccc2)[C@@H]1c1ccc2nccnc2c1` (relative stereo) [HW-1-187B, cis-HW-1-187B]: the IC50 against SARS-CoV-2 Mpro [2] was found to be 22 nM; against MERS-CoV Mpro [10], 1300 nM; against HCoV-HKU1 Mpro [11], 16 nM; against HCoV-229E Mpro [12], 2.3 nM; against SARS-CoV-2 Mpro [13] it was 1.4 nM; on HCoV-NL63 Mpro [14], 56 nM. Besides, on PorCoV-HKU15 Mpro [15] (read-out: HW-1-187B (cis)), the IC50 is 6300 nM.
Regarding `O=C(CCl)N1N=C(c2cc(Cl)ccc2F)[C@H](c2ccccc2)[C@@H]1c1ccc2nccnc2c1` (relative stereo) [HW-2-010B], the IC50 against SARS-CoV-2 Mpro [2] came to 14 nM.
Turning to `O=C(CCl)N1N=C(c2ccccc2)[C@H](c2ccccc2)[C@H]1c1ccccc1` (relative stereo) [PM-2-20A (trans)], the IC50 on MERS-CoV Mpro [4] (setting [24]) came to 3700 nM; on SARS-CoV-2 Mpro [5] (setting [24]), 28 nM; on PorCoV-HKU15 Mpro [6] (read-out: PM-2-20A (trans)), 4800 nM; on HCoV-NL63 Mpro [7] (setting [24]), 67 nM; at HCoV-229E Mpro [8] (setting [24]) it was 3.6 nM; on HCoV-HKU1 Mpro [9] (setting [24]) it was 36 nM.
Turning to `O=C(CCl)N1N=C(c2ccccc2)[C@H](c2ccccc2)[C@@H]1c1ccccc1` (relative stereo) [PM-2-020B, cis-PM-02-020B], the IC50 at SARS-CoV-2 Mpro [2] is 62 nM; against MERS-CoV Mpro [10], 2800 nM; at HCoV-HKU1 Mpro [11], 200 nM; against HCoV-229E Mpro [12] it was 23 nM; on SARS-CoV-2 Mpro [13], 5.3 nM; at HCoV-NL63 Mpro [14], 350 nM. Moreover, the IC50 on PorCoV-HKU15 Mpro [15] (read-out: PM-2-20B (cis)) stood at 1100 nM.
As for `O=C(CCl)N1N=C(c2ccccc2)[C@H](c2ccccc2)[C@H]1c1cccc2nccnc12` (relative stereo) [PM-2-27A (trans)], the IC50 on MERS-CoV Mpro [4] (setting [25]) was found to be 3300 nM; at SARS-CoV-2 Mpro [5] (setting [25]), 110 nM; on PorCoV-HKU15 Mpro [6] (read-out: PM-2-27A (trans)), 5400 nM; on HCoV-NL63 Mpro [7] (setting [25]) it was 92 nM; at HCoV-229E Mpro [8] (setting [25]), 46 nM; on HCoV-HKU1 Mpro [9] (setting [25]), 60 nM.
`C=CS(=O)(=O)N1N=C(c2cc(Cl)ccc2F)[C@H](c2ccccc2)[C@@H]1c1ccc2nccnc2c1` (relative stereo) [PM-2-071B] yielded an IC50 on SARS-CoV-2 Mpro [2] of 91 nM.
On SARS-CoV-2 Mpro [16], `O=C(CCl)N1N=C(c2ccccc2)C[C@H]1c1cccc2nccnc12` [(S)-EN82] came in with an IC50 of 2700 nM.
Take `C=CS(=O)(=O)N1N=C(c2cc(Cl)ccc2F)[C@@H](c2ccccc2)[C@H]1c1ccc2nccnc2c1` [(S,S)-PM-2-071, (S,S)-enantiomer of PM-2-071B]: the IC50 against SARS-CoV-2 Mpro [2] came out at 35 nM.
For the compound `O=C(CCl)N1N=C(c2cccc(Cl)c2)CC1c1cccc2nccnc12` (stereo not drawn) [LEB-2-172], the IC50 is 38 nM against MERS-CoV Mpro [4]; 0.89 nM on SARS-CoV-2 Mpro [5]; 11 nM against HCoV-NL63 Mpro [7]; 5.5 nM at HCoV-229E Mpro [8]; 0.96 nM on HCoV-HKU1 Mpro [9].
Turning to `O=C(CCl)N1N=C(c2cc(F)cc(Cl)c2)CC1c1cccc2nccnc12` (stereo not drawn) [LEB-3-004], the IC50 on MERS-CoV Mpro [4] is 100 nM; against SARS-CoV-2 Mpro [5], 1.6 nM; at PorCoV-HKU15 Mpro [6] (read-out: LEB-3-004), 2100 nM; against HCoV-NL63 Mpro [7], 25 nM; on HCoV-229E Mpro [8], 5.3 nM; against HCoV-HKU1 Mpro [9], 2.3 nM.
For the compound `O=C(CCl)N1N=C(c2ccccc2)CC1c1cccnc1` (stereo not drawn) [NJH-1-147], the IC50 at MERS-CoV Mpro [4] is 7200 nM; at SARS-CoV-2 Mpro [5], 58 nM; at PorCoV-HKU15 Mpro [6] (read-out: hidden head, 7th column) it was 11000 nM; against HCoV-NL63 Mpro [7] it was 330 nM; against HCoV-229E Mpro [8], 54 nM; against HCoV-HKU1 Mpro [9], 26 nM.
For `O=C(CCl)N1N=C(c2ccccc2)CC1c1ccnc2[nH]ccc12` (stereo not drawn) [NJH-1-159], the IC50 at MERS-CoV Mpro [4] (setting [26]) was 960 nM; at SARS-CoV-2 Mpro [5] (setting [26]), 20 nM; at PorCoV-HKU15 Mpro [6] (read-out: hidden head, 8th column) it was 9300 nM; at HCoV-NL63 Mpro [7] (setting [26]), 110 nM; at HCoV-229E Mpro [8] (setting [26]) it was 19 nM; at HCoV-HKU1 Mpro [9] (setting [26]), 8.9 nM.
For the compound `C=CS(=O)(=O)N1N=C(c2cc(Cl)ccc2F)C(c2ccccc2)C1c1ccc2nccnc2c1` (stereo not drawn) [PM-2-071], the IC50 on HCoV-HKU1 Mpro [17] is < 2 nM; against SARS-CoV-1 Mpro [18], < 1000 nM; on HCoV-NL63 Mpro [19], < 1000 nM; against HCoV-OC43 Mpro, < 2 nM; against HCoV-229E Mpro [20], < 1000 nM; at SARS-CoV-2 Mpro [21], < 2 nM. Further, the IC50 in test [22] was < 1000 nM.
